Assay results reported in patent US8106055B2, “Substituted amide compounds” (Gruenenthal GmbH, priority 2007, dated 2012).

Legend:
[1] = biological target: T1, serotonin (5-HT) reuptake (Rattus norvegicus, UniProt P31652); experiment: Inhibition of serotonin (5HT) reuptake in synaptosomes from rat brain; format: biochemical; conditions: test concentration of 10 μM; read-out: 5-HT (inhibition of reuptake of serotonin, % inhibition)
T1 construct: synaptosomes are freshly isolated from areas of the rat brain; from tissue; host or cells: rat brain synaptosomes (P2 fraction)
T1 sequence (P31652 whole entry): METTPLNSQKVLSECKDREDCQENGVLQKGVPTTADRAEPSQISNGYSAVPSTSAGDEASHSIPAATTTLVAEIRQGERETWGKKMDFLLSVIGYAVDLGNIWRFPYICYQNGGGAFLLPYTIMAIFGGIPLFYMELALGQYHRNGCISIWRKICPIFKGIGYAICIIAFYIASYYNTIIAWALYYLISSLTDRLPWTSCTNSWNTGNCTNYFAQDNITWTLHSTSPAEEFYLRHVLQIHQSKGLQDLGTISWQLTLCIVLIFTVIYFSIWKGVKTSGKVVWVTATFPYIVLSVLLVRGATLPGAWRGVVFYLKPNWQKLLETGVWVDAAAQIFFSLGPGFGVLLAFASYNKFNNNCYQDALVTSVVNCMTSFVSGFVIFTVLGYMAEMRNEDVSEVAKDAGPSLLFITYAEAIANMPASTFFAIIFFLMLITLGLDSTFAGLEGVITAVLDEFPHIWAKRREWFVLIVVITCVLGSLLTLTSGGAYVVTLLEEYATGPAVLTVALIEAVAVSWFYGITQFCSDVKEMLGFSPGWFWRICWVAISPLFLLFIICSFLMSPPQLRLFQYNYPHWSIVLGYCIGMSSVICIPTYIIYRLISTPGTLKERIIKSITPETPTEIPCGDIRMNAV
Method in brief: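 Freshly isolated rat brain synaptosomes (P2 fraction) used for 5-HT reuptake. Test compound at 10 μM, activity given as % inhibition.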

human μ opiate receptor = biological target: T2, human μ opiate receptor (Homo sapiens, UniProt P35372); experiment: Affinity for the human μ opiate receptor ([3H]-naloxone displacement, CHO-K1 receptor membrane preparation, SPA); format: binding; conditions: test concentration of 1 μM; read-out: μ (binding on the μ opioid receptor, % inhibition)
T2 construct: purchased PerkinElmer Life Sciences, Zaventem, Belgium RB-HOM; host or cells: CHO-K1 cells (membrane preparation)
T2 sequence (P35372 whole entry): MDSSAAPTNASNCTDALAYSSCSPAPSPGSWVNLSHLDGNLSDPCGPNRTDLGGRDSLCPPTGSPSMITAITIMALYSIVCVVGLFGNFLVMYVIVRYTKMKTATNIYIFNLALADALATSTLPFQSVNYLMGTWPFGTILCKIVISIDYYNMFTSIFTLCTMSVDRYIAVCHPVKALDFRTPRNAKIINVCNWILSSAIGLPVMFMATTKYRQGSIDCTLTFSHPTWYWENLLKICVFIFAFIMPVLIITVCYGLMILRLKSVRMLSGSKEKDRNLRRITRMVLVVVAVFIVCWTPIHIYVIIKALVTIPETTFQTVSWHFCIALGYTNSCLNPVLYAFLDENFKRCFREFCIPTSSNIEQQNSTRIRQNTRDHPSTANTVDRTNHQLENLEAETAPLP
Method in brief: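 Membranes from CHO-K1 cells expressing the human μ opiate receptor (15-40 μg protein per well) were incubated with test compound, 1 nmol/l [3H]-naloxone and WGA-SPA beads in 50 mmol/l Tris-HCl with 0.06% BSA for 90 minutes at room temperature. Values are % inhibition of specific binding at 1 μmol/l.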

Q: For `COc1cc(C)c(S(=O)(=O)N(C)CCOCC(=O)NCC2CCC(C(c3ccccc3)N(C)C)CC2)c(C)c1` (stereo not drawn) [Example 137, N-((4-((dimethylamino)(phenyl)methyl)cyclohexyl)methyl)-2-(2-(4-methoxy-N,2,6-trimethylphenylsulfonamido)ethoxy)acetamide], which inhibition at 10 µM [1] is on record?
A: 89%

Q: And the inhibition at 1 µM (human μ opiate receptor)?
A: 89%

Q: What does the source list for `CN(C)C(c1cccc(F)c1)C1CCC(CCNC(=O)COCCN(C)S(=O)(=O)c2ccc(Cl)cc2)CC1` (stereo not drawn) [Example 186, 2-(2-(4-chloro-N-methylphenylsulfonamido)ethoxy)-N-(2-(4-((dimethylamino)(3-fluorophenyl)methyl)cyclohexyl)ethyl)acetamide]?
A: inhibition at 10 µM [1]: 88%; inhibition at 1 µM (human μ opiate receptor): 87%

Q: With `CN(C)C(c1cccc(F)c1)C1CCC(NC(=O)COC2CCN(S(=O)(=O)c3cccc(C(F)(F)F)c3)C2)CC1` (stereo not drawn) [Example 139, N-(4-((dimethylamino)(3-fluorophenyl)methyl)cyclohexyl)-2-(1-(3-(trifluoromethyl)phenylsulfonyl)pyrrolidin-3-yloxy)acetamide] as the compound, how does the inhibition at 10 µM [1] read?
A: 79%

Q: And the inhibition at 1 µM (human μ opiate receptor)?
A: 83%

Q: What does the source list for `COc1cc(C)c(S(=O)(=O)N2CCC(OCC(=O)NCCC3CCC(C(c4cccs4)N(C)C)CC3)CC2)c(C)c1C` (stereo not drawn) [Example 177, N-(2-(4-((dimethylamino)(thiophen-2-yl)methyl)cyclohexyl)ethyl)-2-(1-(4-methoxy-2,3,6-trimethylphenylsulfonyl)piperidin-4-yloxy)acetamide]?
A: inhibition at 10 µM [1]: 93%; inhibition at 1 µM (human μ opiate receptor): 88%

Q: With `Cc1cc(C)c(S(=O)(=O)N2CCC(OCC(=O)NCC3CCC(C(c4ccccc4)N(C)C)CC3)C2)c(C)c1` (stereo not drawn) [Example 26, N-((4-((dimethylamino)(phenyl)methyl)cyclohexyl)methyl)-2-(1-(mesitylsulfonyl)pyrrolidin-3-yloxy)acetamide] as the compound, how does the inhibition at 10 µM [1] read?
A: 83%

Q: And the inhibition at 1 µM (human μ opiate receptor)?
A: 97%

Q: For `CN(C)C(c1cccc(F)c1)C1CCC(NC(=O)COC2CCN(S(=O)(=O)c3ccc(F)cc3)C2)CC1` (stereo not drawn) [Example 172, N-(4-((dimethylamino)(3-fluorophenyl)methyl)cyclohexyl)-2-(1-(4-fluorophenylsulfonyl)pyrrolidin-3-yloxy)acetamide], which inhibition at 10 µM [1] is on record?
A: 79%

Q: And the inhibition at 1 µM (human μ opiate receptor)?
A: 78%

Q: Which inhibition at 10 µM [1] does the source give for `COc1cc(C)c(S(=O)(=O)N2CCC(OCC(=O)NCCC3CCC(C(c4cccs4)N(C)C)CC3)C2)c(C)c1` (stereo not drawn) [Example 199, N-(2-(4-((dimethylamino)(thiophen-2-yl)methyl)cyclohexyl)ethyl)-2-(1-(4-methoxy-2,6-dimethylphenylsulfonyl)pyrrolidin-3-yloxy)acetamide] here?
A: 96%

Q: And the inhibition at 1 µM (human μ opiate receptor)?
A: 87%

Q: `COc1cc(C)c(S(=O)(=O)N2CCCC(OCC(=O)NCC3CCC(C(c4cccc(F)c4)N(C)C)CC3)C2)c(C)c1C` (stereo not drawn) [Example 145, N-((4-((dimethylamino)(3-fluorophenyl)methyl)cyclohexyl)methyl)-2-(1-(4-methoxy-2,3,6-trimethylphenylsulfonyl)piperidin-3-yloxy)acetamide] was tested. Which inhibition at 10 µM [1] did it give?
A: 91%

Q: And the inhibition at 1 µM (human μ opiate receptor)?
A: 87%

Q: With `COc1ccc(S(=O)(=O)N2Cc3ccccc3CC2COCC(=O)NCC2CCC(C(c3ccccc3)N(C)C)CC2)cc1` (stereo not drawn) [Example 19, N-((4-((dimethylamino)(phenyl)methyl)cyclohexyl)methyl)-2-((2-(4-methoxyphenylsulfonyl)-1,2,3,4-tetrahydroisoquinolin-3-yl)methoxy)acetamide] as the compound, how does the inhibition at 10 µM [1] read?
A: 92%

Q: And the inhibition at 1 µM (human μ opiate receptor)?
A: 98%
